Test results reported in patent US20250306008A1, “PHARMACEUTICAL COMPOSITION FOR TREATING OR PREVENTING MALIGNANT BREAST CANCER” (KOREA ADVANCED INSTITUTE OF SCIENCE AND TECHNOLOGY, priority 2021, published 2025).

What was measured:
BT20 cells = experiment: Tamoxifen drug response (Incucyte confluency) after BCL11A and HDAC1/2 inhibition; assay type: cell-based; conditions: tamoxifen 10 uM
Method: (§1) Briefly, it is as follows: Cells were plated in 1×10^4 cells (3 repetitions for each condition; triplicate), after 24 hours, the cells were treated with the tamoxifen drug (10 uM) and monitored by taking pictures at 3-hour intervals using Incucyte for 72 hours. After that, the confluency of the cells in the pictures was calculated and the sensitivity of the cells to various drugs was graphed.

MDA-MB231 cells = experiment: as above; assay type: cell-based; conditions: tamoxifen 10 uM
Method: as §1

T47D cell line = experiment: Tamoxifen drug response after BCL11A and HDAC1/2 overexpression; assay type: cell-based, human
Description: The present inventors confirmed the tamoxifen drug response in human breast cancer cell lines T47D and MCF7 upon overexpression (OE) of BCL11A and HDAC1/2.

breast cancer patients = experiment: Patients' drug response to tamoxifen according to BCL11A and HDAC1/2 expression; design: species or system human; conditions: patient group with low expression of BCL11A and HDAC1/2 compared to the group with high expression

| Compound | sensitivity of control cells (shScrambled) to Tamoxifen (BT20 cells; BT20 control cells (shScrambled), 72 hours) | sensitivity of control cells (shScrambled) to Tamoxifen (MDA-MB231 cells; MDA-MB231 control cells (shScrambled), 72 hours) | sensitivity to tamoxifen of overexpressing cells (T47D cell line; T47D cells overexpressing BCL11A-OE, HDAC1/2-OE, or both) | response of control cells to tamoxifen (T47D cell line; T47D control cells) | sensitivity of patient group to the tamoxifen drug (breast cancer patients) | sensitivity of treated cells to Tamoxifen (cell confluency) (BT20 cells; BT20, monitored 72 hours) | sensitivity of treated cells to Tamoxifen (cell confluency) (MDA-MB231 cells; MDA-MB231, monitored 72 hours) |
| --- | --- | --- | --- | --- | --- | --- | --- |
| CC/C(=C(\c1ccccc1)c1ccc(OCCN(C)C)cc1)c1ccccc1 [Tamoxifen, tamoxifen] | did not show sensitivity | did not show sensitivity | did not show sensitivity | responded | higher sensitivity |  |  |
| shBCL11A: shRNA (GCATAGACGATGGCACTGTTA; SEQ ID NO: 1) designed to target the BCL11A gene, used as the BCL11A inhibitor |  |  |  |  |  | some sensitivity | some sensitivity |
